Experimental data as given in article PMC2700090 (Virology Journal, 2009).
Peptide text beside a SMILES is read from it.

Biological target: neuraminidase (NA) (Influenza A virus (A/Hong Kong/1073/99(H9N2)), UniProt Q9ICY2)
Assay: biochemical
Conditions: read-out: % inhibition at 1000 μM

Compound `C[C@@H](O)[C@H](NC(=O)[C@H](CCCCN)NC(=O)[C@H](CO)NC(=O)[C@H](CCCNC(=N)N)NC(=O)[C@H](Cc1ccccc1)NC(=O)[C@H](CC(=O)O)NC(=O)[C@@H](N)CC(N)=O)C(=O)O` [L-P1, NDFRSKT] (H-NDFRSKT-OH) has an inhibition at 1000 µM of roughly 35%.
